Source: publication PMC13147306 (The Febs Journal, 2025)

Tests used:
AthePKS = experiment: steady-state kinetics, HPLC of product 1b; assay type: biochemical; conditions: read-out: apparent Km; 400 μM malonyl-CoA, 50 mM Tris/HCl pH 7.5, 37 °C
DnrK = target: T1, DnrK (Streptomyces peucetius, UniProt Q06528); experiment: O-methylation assay, LC-MS/HPLC; assay type: biochemical; conditions: 0.5 mM substrate, 2 mM SAM, 5 μM enzyme, HEPES-NaOH pH 8, 37 °C, 24 h
T1 sequence (Q06528 1-356): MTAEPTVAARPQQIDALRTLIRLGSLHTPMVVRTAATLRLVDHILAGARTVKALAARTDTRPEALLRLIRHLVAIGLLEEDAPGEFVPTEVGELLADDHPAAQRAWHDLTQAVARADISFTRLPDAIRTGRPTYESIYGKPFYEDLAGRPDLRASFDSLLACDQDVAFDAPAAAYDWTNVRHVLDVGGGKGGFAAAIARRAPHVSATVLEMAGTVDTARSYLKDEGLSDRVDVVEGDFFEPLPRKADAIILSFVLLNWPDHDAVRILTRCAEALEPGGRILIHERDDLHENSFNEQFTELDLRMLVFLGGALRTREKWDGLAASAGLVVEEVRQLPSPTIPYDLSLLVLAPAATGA

| Structure (SMILES) | Km (AthePKS) [µM] | O-methylation assay, LC-MS/HPLC (DnrK) |
| --- | --- | --- |
| CNc1ccccc1C(=O)SCCNC(=O)CCNC(=O)[C@H](O)C(C)(C)COP(=O)(O)OP(=O)(O)OC[C@H]1O[C@@H](n2cnc3c(N)ncnc32)[C@H](O)[C@@H]1OP(=O)(O)O [1a, N-methylanthraniloyl-CoA] | 42.6 | – |
| Cn1c(=O)cc(O)c2ccccc21 [1b, 4-hydroxy-1-methyl-2-quinolone] | – | DnrK was still the best‐performing enzyme |
| O=c1cc(O)c2ccccc2[nH]1 [2b] | – | it was also active with the other heterocycles 2b, 6b, and 8b |
